In article PMC6957531, “A butanolic fraction from the standardized stem extract of Cassia occidentalis L delivered by a self-emulsifying drug delivery system protects rats from glucocorticoid-induced osteopenia and muscle atrophy” (Scientific Reports, 2020):

Columns and labels:
[1] = tested on: serum PINP, CTX-I, sclerostin (SOST); test: GIO model: serum biochemical markers by ELISA; type: in vivo, male SD rats
Description: (§1) All treatments lasted for 4 weeks.
(§2) The serum samples were collected from blood by centrifugation at 3000 rpm. Serum cross-linked C-telopeptide of Type I collagen (CTX-I), procollagen type I N-terminal propeptide (PINP), sclerostin (SOST), interleukin 1 beta (IL-1β) levels were determined by ELISA (MyBioSource, USA) following the manufacturer’s protocols.

[2] = tested on: OCN, TRAP, DMP-1, MEPE, RANKL mRNA in bones; test: GIO model: osteoblast-, osteoclast- and osteocyte-specific genes in bones by qPCR; conditions: rat, in vivo
[3] = tested on: GILZ mRNA in thymus and bone; serum IL-1β; test: Evaluation of the anti-inflammatory response (GILZ mRNA, serum IL-1β); design: species or system male SD rats; conditions: rat, in vivo
Description: as §2
Primer sequences are listed below:
Serum IL-1β level were measured to evaluate the effect of CSE-BuF on glucocorticoid-mediated anti-inflammatory response.

[4] = type: in vivo
Description: as §1
Body composition of live rats was analyzed using an Echo-MRI Body Composition Analyzer E26-226-RM (EchoMRI LLC, USA) as per our previously described method[14],[47]–[50].

femur diaphysis = test: GIO model: bone dynamic histomorphometry (double calcein labeling); type: in vivo, male SD rats; conditions: versus control (Veh)
Description: as §1
For dynamic histomorphometric measurements, double calcein labeling was performed with an interval of 10 days between two calcein injections. We measured the periosteal perimeter, single-labeled surface (sLS), double labeled surface (dLS), and interlabeled thickness (IrLTh).

[5] = tested on: L5 vertebra and femur diaphysis; test: GIO model: bone strength (L5 compression, femur 3-point bending); type: in vivo, male SD rats
Description: as §1
Bone mechanical strength was measured by three-point bending test for femur diaphysis and compression test for L5 vertebrae using a bone strength tester TK 252 C (Muromachi Kikai Co. Ltd, Tokyo, Japan) according to a previously published protocol[14],[52].

[6] = tested on: atrogin 1 and MuRF1 in gastrocnemius muscle; test: GIO model: immunoblotting of muscle atrogenes; design: species or system male SD rats; conditions: rat, in vivo
Description: as §1
Gastrocnemius muscle samples were collected from each group and protein lysates were prepared to determine the levels of muscle atrogenes [atrogin 1], and muscle ring finger protein (MuRF1). Relative expression of these proteins was detected by immunoblot analysis using specific antibodies againts atrogin 1 (Abcam; 1:1000 dilution), MuRF1 (Santa Cruz Biotechnology; 1:1000 dilution), and GAPDH (Merck Millipore; 1:1000 dilution). Densitometric analyses of immunoblots were performed using ImageJ software.

miR-29a, miR-17, miR-20a = test: GIO model: miRNA expression in bones (TaqMan assay); design: species or system male SD rats; conditions: rat, in vivo
Excerpt: as §1
TaqMan assay (Thermo Fisher Scientific, USA) was used to determine miRNA expression in bones. Specific assay was designed based on published sequence using Thermo Fisher miRNA assay design tool. Assay ID of different miRNA was; hsa-miR-29a (OO2112), hsa-miR-17 (OO2308), hsa-miR-20a (OOO580) and U6 snRNA (OO1973)[54].

gastrocnemius muscle = test: GIO model: muscle histomorphometry; type: in vivo, male SD rats; conditions: versus control
Description: as §1
Gastrocnemius muscles were carefully dissected and stored in chilled PBS for 48 h. Tissues were then transferred to 30% sucrose solution (in PBS) at 4 °C until they sank to the bottom. Tissues were embedded in OCT tissue freezing medium (Leica Bio systems, India) and cryo-sections (7 µm) were made using a Cryotome™ FSE Cryostat (Thermo Scientific). Tissue sections were collected on poly-L-lysine coated slides. For H&E staining, sections were rehydrated in PBS for 10 min and fixed in 10% formalin for 3 min. Then H&E staining was performed and mounted with DPX (Sigma). Quantitative analysis for determining cross-sectional area and Feret’s diameter of the muscle fibers were performed using Image J software[50],[56].

in vivo = conditions: rat; for AUC / Cmax / increase of relative bioavailability by CSE-BuF compared to CSE-Bu / %Fr (relative bioavailability): male, Sprague Dawley; for AUC / Cmax / %Fr (relative bioavailability): 250 mg/kg
Description: All analytes were analyzed using API-QTRAP 4000 mass spectrometer (ABSciex, Canada) equipped with electrospray ionization (ESI) source in negative ion ([M-H]^−) mode [apigenin, isovitexin, emodin, luteolin, 3′,4′,7-trihydroxyflavone (THF), and fenofibric acid (FFA)] and quantified using Analyst 1.6 software (Applied Biosystems, MDS Sciex Toronto, Canada). Quantification was performed by multi-reaction monitoring (MRM), by monitoring the parent ion to product ion transition of 269.3/116.9 for apigenin, 431.2/311 for isovitexin, 269.1/224.9 for emodin, 284.9/133 for luteolin, 268.9/132.8 for THF, 316.9/230.9 for FFA (IS for apigenin, isovitexin, emodin, luteolin, and THF). Compound parameters, viz. declustering potential (V), entrance potential (V), collision energy, collision exit potential were −76, −10, −49, and −5 for apigenin; −100, −10, −20 and −15 for isovitexin; −100, −10, −40, and −10 for emodin; −100, −10, −50, and −20 for luteolin; −100, −10, −40, and −10 for THF; −55, −10, −12 and −10 for FFA; respectively. Source parameters, viz. curtain gas (psi), collision gas, ionspray voltage (V), ion source temperature (°C), nebulizer gas (GS1, psi) and turbo ion gas (GS2, psi) for apigenin, isovitexin, emodin, luteolin, THF, and FFA were 30, high, −4500, 500, 50, 50 respectively.
Shimadzu UFLC system (Kyoto, Japan) equipped with a binary pump (LC-20AD), a degasser (DGU-20A3), an autosampler (SIL-HTc) and a column oven (CTO-20AC) was used to inject the samples. The chromatographic separation of apigenin, isovitexin, emodin, luteolin, THF and FFA were performed on Phenomenex Luna (C18 (2), 100A, 150 × 4.6 mm, 3 μ) column with a mobile phase consisting of methanol: 10 mM ammonium acetate, 95:05 (v/v) at 0.6 mL/min flow rate. The temperature of the column oven was set at 40 °C during analysis. 10 µL samples were injected for quantification.
For extraction of apigenin, isovitexin, emodin, luteolin, THF, liquid-liquid extraction (LLE) method was applied for processing rat plasma. Plasma (100 µL) was incubated with 50 µL β-glucuronidase enzyme (2 mg/mL in 100 mM ammonium acetate buffer pH 5), and 50 µL ammonium acetate buffer (100 mM, pH 5) for 2 h at 37°C on water shaking bath. 200 µL ACN containing IS (FFA, 100 ng/mL) was added to plasma, vortex for 15 sec, and then 100 µL 0.1% formic acid (in 10 mM ammonium formate) was added. After vortexing for 5 min on vortexer (IKA^(R) VIBRAX VXR basic) at 1200 rpm, 2 mL ethyl acetate was added. The mixture was again vortexed for 10 min and then centrifuged at 10000 rpm for 5 min. The supernatant (1.5 mL) was transferred into Ria vial and completely dried in a TurboVap. The dried residue was reconstituted with 100 µL of mobile phase and analyzed by LC-MS/MS[44].
For determination of osteogenic compounds in the plasma of rats given CSE-Bu and CSE-BuF, we recruited male Sprague Dawley (SD) rats (220 ± 20 g) and were fasted overnight with free access to water. Rats were divided into 2 groups consisting of 6/group. One group received CSE-Bu (250 mg/kg/oral) and the other received CSE-BuF (250 mg/kg/oral). Blood (300 µL) was collected into 0.5 ml centrifuged tube containing EDTA at 0.25, 0.5, 1, 2, 4, 8, 12, 24, and 48 h and plasma was separated followed by centrifugation at 10000 rpm for 10 min and stored at -80 °C for further analysis. For pharmacokinetic analysis, plasma concentration versus time was plotted and analyzed by non-compartmental analysis method using WinNonlin (Pharsight, Mountain View, CA) software.

bone = conditions: cited from earlier work
[7] = design: method as in PMID 30703497; conditions: cited from earlier work
[8] = 4 weeks, MP 5 mg/kg s.c. daily, CSE-BuF 50 mg/kg oral daily, mean ± SEM, n = 10/group
[9] = in vivo, AUC, CSE-BuF at 250 mg/kg orally, rat plasma, Mean ± SD
[10] = in vivo, CSE-BuF at 250 mg/kg orally, rat plasma, Mean ± SD

SMILES: C[C@H]1C[C@@H]2[C@H]([C@@H](O)C[C@@]3(C)[C@H]2CC[C@]3(O)C(=O)CO)[C@@]2(C)C=CC(=O)C=C12 [MP, Methylprednisolone]
- serum sclerostin ([1]; rat, in vivo): significantly increased
- serum CTX-I (bone resorption marker) ([1]; versus control (Veh)): increased
- serum PINP (bone formation marker) ([1]; versus control (Veh)): suppressed
- RANKL mRNA in bones [2]: robust increase
- TRAP mRNA in bones [2]: robust increase
- mRNA levels of osteocyte markers DMP-1 and MEPE in bones [2]: significant decrease
- osteocalcin (OCN) mRNA level in bones [2]: significantly suppressed
- GILZ mRNA in thymus and bone [3]: robust increase
- serum IL-1β [3]: suppressed
- Body weight [4, 8]: 239.86 ± 5.71 gm
- Fat Mass [4, 8]: 6.12 ± 0.58 %
- Lean Mass [4, 8]: 71.96 ± 2.43 %
- decrease of fat mass compared to control ([4]; rat, in vivo): 40%
- decrease of lean mass compared to control ([4]; rat, in vivo): 11%
- mineralizing surface (pMS/BS), mineral apposition rate (pMAR) and bone formation rate (pBFR/BS) (femur diaphysis): significant decreases
- strength parameters (peak load, energy to failure and stiffness) [5]: decreased all strength parameters
- atrogin and MuRF-1 protein levels in muscle [6]: increased
- levels of miRNA 17, 20a and 29a in bones (miR-29a, miR-17, miR-20a): significant decreases
- cross-sectional area and Feret's diameter of gastrocnemius muscle (gastrocnemius muscle): significantly reduced

SMILES: O=c1cc(-c2ccc(O)cc2)oc2cc(O)cc(O)c12 [Apigenin]
- AUC (in vivo; po, AUC): 2.2 ± 1.15 ng·h/mL
- Cmax (in vivo; po): 3.98 ± 3.03 ng/mL
- plasma level after single oral dosing of CSE-Bu (in words) (in vivo): not detectable
- plasma level after single oral dosing of CSE-BuF (in words) (in vivo): detectable and measured in plasma
- in vivo bone conserving effect (bone): in vivo bone conserving effect has been reported

SMILES: O=c1cc(-c2ccc(O)c(O)c2)oc2cc(O)cc(O)c12 [Luteolin]
- increase of relative bioavailability by CSE-BuF compared to CSE-Bu (in vivo; po): 36%
- %Fr (relative bioavailability) (in vivo; po): 136.94 ± 17.14%
- AUC (in vivo; po): 456.33 ± 131.28 ng·h/mL
- AUC (in vivo; po, AUC): 259 ± 144 ng·h/mL
- plasma level after single oral dosing of CSE-Bu (in words) (in vivo): could be measured in plasma
- plasma level after single oral dosing of CSE-BuF (in words) (in vivo): increases
- in vivo bone conserving effect (bone): in vivo bone conserving effect has been reported

SMILES: O=c1cc(-c2ccc(O)cc2)oc2cc(O)c([C@@H]3O[C@H](CO)[C@@H](O)[C@H](O)[C@H]3O)c(O)c12 [Apigenin 6-C-glucoside Or Isovitexin, Apigenin 6-C-glucoside]
- osteogenic effect in vitro among compounds of CSE-Bu [7]: best osteogenic effect in vitro
- AUC (in vivo; [9]): 17.9 ± 10.4 ng·h/mL
- Cmax (in vivo; [10]): 7.74 ± 4.29 ng/mL
- plasma level after single oral dosing of CSE-Bu (in words) (in vivo): not detectable
- plasma level after single oral dosing of CSE-BuF (in words) (in vivo): detectable and measured in plasma
- in vivo osteogenic effect (bone; mice, ref unpublished data, S. Pal and N. Chattopadhyay): has in vivo osteogenic effect in mice

SMILES: O=c1cc(-c2ccc(O)c(O)c2)oc2cc(O)ccc12 [3′,4′,7-trihydroxyflavone (THF), 3′,4′,7-trihydroxyflavone]
- AUC (in vivo; po, AUC): 764 ± 382 ng·h/mL
- Cmax (in vivo; po): 201 ± 107 ng/mL
- plasma level after single oral dosing of CSE-Bu (in words) (in vivo): not detectable
- plasma level after single oral dosing of CSE-BuF (in words) (in vivo): detectable and measured in plasma

SMILES: Cc1cc(O)c2c(c1)C(=O)c1cc(O)cc(O)c1C2=O [Emodin]
- AUC (in vivo; in vivo, AUC, CSE-Bu at 250 mg/kg orally, rat plasma, Mean ± SD): 69.3 ± 33.2 ng·h/mL
- AUC (in vivo; [9]): 239 ± 31.1 ng·h/mL
- Cmax (in vivo; in vivo, CSE-Bu at 250 mg/kg orally, rat plasma, Mean ± SD): 12.3 ± 3.8 ng/mL
- Cmax (in vivo; [10]): 29.2 ± 13 ng/mL
- increase of relative bioavailability by CSE-BuF compared to CSE-Bu (in vivo; po): 279%
- %Fr (relative bioavailability) (in vivo; po): 379.68 ± 87.63%
- plasma level after single oral dosing of CSE-Bu (in words) (in vivo): could be measured in plasma
- plasma level after single oral dosing of CSE-BuF (in words) (in vivo): increases
- in vivo bone conserving effect (bone): in vivo bone conserving effect has been reported
